pIC50: −log10 of the molar value.
How the values were obtained:
Human Carboanhydrase-2 = Human Carboanhydrase-2 (Homo sapiens, UniProt P00918); assay: Carboanhydrase Assay; format: biochemical; conditions: 4-nitrophenyl acetate hydrolysis, 400 nm; read-out: Inhibition of Human Carboanhydrase-2 IC50
Experimental: 2 μl of the test compounds, dissolved in DMSO (100× the final concentration), in a concentration range of 0.03-10 μm (final), was pipetted as 4× determinations into the holes of a 96-hole microtiter plate. Holes that contained the solvent without test compounds were used as reference values (1. Holes without carboanhydrase for correction of the non-enzymatic hydrolysis of the substrate, and 2. Holes with carboanhydrase for determining the activity of the non-inhibited enzyme).
188 μl of assay buffer (10 mmol of Tris/HCl, pH 7.4, 80 mmol of NaCl), with or without 3 units/hole on carboanhydrase I or II, was pipetted into the holes of the microtiter plate.

[1] = test system: MCF7, hormone-independent human breast cancer cells; assay: Proliferation assay, MCF7; format: cell-based; conditions: MCF7, 96 h, 4 days incubation, crystal violet
Outline: (§1)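 Cells seeded ~5000/well, treated after 24 h with 0.01-30 μM compound (0.5% DMSO) for 4 days. Glutaraldehyde-fixed cells stained with crystal violet, absorbance at 595 nm; growth expressed as percent, normalized to zero-point plate (0%) and untreated cells (100%).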

[2] = test system: NCI-H460, human non-small-cell lung cancer cells; assay: Proliferation assay, H460; format: cell-based; conditions: NCI-H460, 96 h, 4 days incubation, crystal violet
Outline: as §1

[3] = target: T1, VEGF receptor tyrosine kinase-2 (Homo sapiens, UniProt P35968); assay: VEGF Receptor-2 Kinase Assay; format: biochemical; conditions: poly-(Glu4Tyr) substrate, 33P-ATP, 10 minutes at 22° C.; read-out: VEGF-R2 IC50
T1 construct: GST; made in house; host or cells: baculovirus-infected insect cells (Sf9)
T1 sequence (P35968 20-1356): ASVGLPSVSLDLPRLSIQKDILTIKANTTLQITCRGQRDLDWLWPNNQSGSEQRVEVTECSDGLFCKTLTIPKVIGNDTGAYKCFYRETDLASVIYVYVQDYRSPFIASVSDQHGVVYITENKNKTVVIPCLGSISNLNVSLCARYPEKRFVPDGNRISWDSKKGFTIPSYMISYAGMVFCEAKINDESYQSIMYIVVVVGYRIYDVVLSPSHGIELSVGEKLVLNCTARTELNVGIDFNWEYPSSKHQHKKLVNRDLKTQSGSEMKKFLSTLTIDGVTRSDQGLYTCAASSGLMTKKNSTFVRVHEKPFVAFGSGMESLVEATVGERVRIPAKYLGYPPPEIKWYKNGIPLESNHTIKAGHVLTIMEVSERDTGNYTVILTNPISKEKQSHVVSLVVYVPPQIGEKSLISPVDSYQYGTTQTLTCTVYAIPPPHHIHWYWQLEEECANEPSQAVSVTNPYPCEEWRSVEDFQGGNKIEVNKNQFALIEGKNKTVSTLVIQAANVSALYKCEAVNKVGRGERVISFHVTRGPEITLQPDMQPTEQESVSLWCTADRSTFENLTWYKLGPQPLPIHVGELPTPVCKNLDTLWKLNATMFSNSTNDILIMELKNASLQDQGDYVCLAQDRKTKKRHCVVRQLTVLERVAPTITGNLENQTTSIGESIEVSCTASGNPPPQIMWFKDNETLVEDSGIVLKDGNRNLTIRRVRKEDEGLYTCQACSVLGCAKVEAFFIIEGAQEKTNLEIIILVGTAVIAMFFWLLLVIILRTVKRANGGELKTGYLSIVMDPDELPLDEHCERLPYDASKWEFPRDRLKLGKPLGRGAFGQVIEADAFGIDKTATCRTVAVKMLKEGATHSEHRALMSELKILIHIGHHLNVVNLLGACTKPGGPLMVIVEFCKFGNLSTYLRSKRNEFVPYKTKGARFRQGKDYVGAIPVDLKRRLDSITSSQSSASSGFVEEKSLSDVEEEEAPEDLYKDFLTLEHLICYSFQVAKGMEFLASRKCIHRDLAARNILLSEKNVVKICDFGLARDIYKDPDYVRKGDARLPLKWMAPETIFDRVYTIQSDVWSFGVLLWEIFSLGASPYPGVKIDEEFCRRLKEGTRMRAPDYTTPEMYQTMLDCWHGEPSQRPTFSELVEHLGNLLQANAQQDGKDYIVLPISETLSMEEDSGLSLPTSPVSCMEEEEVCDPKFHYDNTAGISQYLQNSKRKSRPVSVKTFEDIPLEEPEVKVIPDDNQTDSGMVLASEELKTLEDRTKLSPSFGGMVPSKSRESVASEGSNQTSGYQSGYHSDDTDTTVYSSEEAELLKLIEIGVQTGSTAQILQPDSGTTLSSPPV

CDK2/CycE = target: T2, CDK2/CycE (Homo sapiens, UniProt P24941); assay: CDK2/CycE Kinase Assay; format: biochemical; conditions: histone IIIS substrate, 33P-ATP, 15 minutes at 22° C.
T2 construct: GST; purchased ProQinase GmbH, Freiburg; host or cells: baculovirus-infected insect cells (Sf9)
Outline: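 Recombinant GST-tagged CDK2/CycE from Sf9 cells (50 ng/point) was incubated with compound (0.01-100 μM) for 15 min at 22° C, pH 8.0, with 0.5 μM ATP plus ^33P-γ-ATP and histone IIIS as substrate, in 12.5% DMSO. Incorporated ^33P was counted after filter binding and washing.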

[4] = test system: HCT 116, human colon cancer cells; assay: Proliferation assay, HCT116; format: cell-based; conditions: HCT-116, 96 h, 4 days incubation, crystal violet
Description: Cultivated human tumor cells (MCF7, hormone-independent human breast cancer cells, related to ATCC HTB22; NCI-H460, human non-small-cell lung cancer cells, ATCC HTB-177, HCT 116, human colon cancer cells, ATCC CCL-247; DU 145, hormone-independent human prostate cancer cells, ATCC HTB-81; MaTu-MDR, hormone-independent, multiple pharmaceutical agent-resistant human breast cancer cells, EPO-GmbH, Berlin) were flattened out at a density of about 5000 cells/measuring point, depending on the growth rate of the respective cells, in a 96-well multititer plate in 200 μl of the corresponding growth medium. After 24 hours, the cells of one plate (zero-point plate) were colored with crystal violet (see below), while the medium of the other plates was replaced by fresh culture medium (200 μl), to which the test substances were added in various concentrations (0 μm, as well as in the range of 0.01-30 μm; the final concentration of the solvent dimethyl sulfoxide was 0.5%). The cells were incubated for 4 days in the presence of test substances. The cell proliferation was determined by coloring the cells with crystal violet: the cells were fixed by adding 20 μl/measuring point of an 11% glutaric aldehyde solution for 15 minutes at room temperature. After three washing cycles of the fixed cells with water, the plates were dried at room temperature. The cells were colored by adding 100 μl/measuring point of a 0.1% crystal violet solution (the pH was set at 3 by adding acetic acid). After three washing cycles of the colored cells with water, the plates were dried at room temperature. The dye was dissolved by adding 100 μl/measuring point of a 10% acetic acid solution. The extinction was determined by photometry at a wavelength of 595 nm. The change of cell growth, in percent, was calculated by normalization of the measured values to the extinction values of the zero-point plate (=0%) and the extinction of the untreated (0 μm) cells (=100%).

[5] = test system: DU 145, hormone-independent human prostate cancer cells; assay: Proliferation assay, DU145; format: cell-based; conditions: DU-145, 96 h, 4 days incubation, crystal violet
Outline: as §1

MaTu-ADR = assay: Proliferation assay, MaTu-ADR; format: cell-based; conditions: Homo sapiens, 96 h, MaTu-ADR cells, 4 days incubation, crystal violet
Outline: as §1

CDK1/CycB = target: T3, CDK1/CycB (Homo sapiens, UniProt P06493); assay: CDK1/CycB Kinase Assay; format: biochemical; conditions: histone IIIS substrate, 33P-ATP, 15 minutes at 22° C.
T3 construct: GST; purchased ProQinase GmbH, Freiburg; host or cells: baculovirus-infected insect cells (Sf9)
T3 sequence (P06493 whole entry): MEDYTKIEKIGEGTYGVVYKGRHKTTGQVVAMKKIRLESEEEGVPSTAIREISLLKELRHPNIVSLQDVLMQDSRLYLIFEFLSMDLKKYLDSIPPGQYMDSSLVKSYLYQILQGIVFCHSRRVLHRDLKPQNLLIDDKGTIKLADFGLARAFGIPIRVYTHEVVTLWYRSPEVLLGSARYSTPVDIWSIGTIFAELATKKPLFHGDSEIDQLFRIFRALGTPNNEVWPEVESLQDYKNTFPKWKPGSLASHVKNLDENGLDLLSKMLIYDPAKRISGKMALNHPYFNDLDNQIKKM
T3 sequence (P14635 whole entry partner): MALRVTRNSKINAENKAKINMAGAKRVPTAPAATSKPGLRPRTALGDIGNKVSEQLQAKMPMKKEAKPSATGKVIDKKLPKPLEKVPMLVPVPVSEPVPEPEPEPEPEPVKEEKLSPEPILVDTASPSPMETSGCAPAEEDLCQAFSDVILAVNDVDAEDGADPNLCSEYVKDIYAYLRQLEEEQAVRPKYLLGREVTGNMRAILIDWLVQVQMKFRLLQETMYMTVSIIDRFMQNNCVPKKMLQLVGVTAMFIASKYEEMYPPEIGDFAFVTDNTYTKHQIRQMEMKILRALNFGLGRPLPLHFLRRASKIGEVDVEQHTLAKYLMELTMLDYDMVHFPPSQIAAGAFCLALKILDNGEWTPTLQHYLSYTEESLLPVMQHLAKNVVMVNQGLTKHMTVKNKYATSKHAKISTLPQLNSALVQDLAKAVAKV

Row | pIC50 (Human Carboanhydrase-2) | pIC50 [1] | pIC50 [2] | pIC50 [3] | pIC50 (CDK2/CycE) | pIC50 [4] | pIC50 [5] | pIC50 (CDK1/CycB) | SMILES | pIC50 (MaTu-ADR)
1 | < 5.00 | 6.52 | 5.92 | 7.40 | > 8.00 | 6.40 | 5.82 | 7.10 | C[C@H](CO)Nc1nc(Nc2ccc(S(C)(=N)=O)cc2)ncc1Br (mixture of isomers) [Example 1.0, (RS)-S-[4-({5-Bromo-4-[(R)-(2-hydroxy-1-methylethyl)amino]pyridimin-2-yl}amino)phenyl]-S-methyl sulfoximide] | 5.80
2 | < 5.00 | 5.82 | 6.52 | – | – | 6.52 | 5.77 | 6.96 | CC(C)Nc1nc(Nc2ccc(S(C)(=N)=O)cc2)ncc1Br (racemic) [Example 2.0, (RS)-S-(4-{[5-bromo-4-(isopropylamino)pyrimidin-2-yl]amino}phenyl)-S-methyl sulfoximide] | 6.40
